For seven cell lines, relative viability results are on record in the supplement of paper PMC10307832.

What all share (assay): relative viability (nuclei count vs DMSO), 5 days (fraction); higher = more cells survive
Compound in the assay “Tivantinib + Lapatinib”: O=C1NC(=O)[C@@H](c2cn3c4c(cccc24)CCC3)[C@@H]1c1c[nH]c2ccccc12 [Tivantinib] + CS(=O)(=O)CCNCc1ccc(-c2ccc3ncnc(Nc4ccc(OCc5cccc(F)c5)c(Cl)c4)c3c2)o1 [Lapatinib] (partner 2 µM)
The method in brief: (§1)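 Lung cancer cell lines were pin-tool dosed in 1536-well plates on the day after seeding, with either a lone drug or a fixed anchor-drug dose plus five library-drug doses (not always all listed) in √10 steps. Nuclei were counted on 4× images after 5 days. Relative viability is the ratio of treated-well to vehicle-well nuclei counts, with each value a median of duplicate plates.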

Compound in the assay “Tivantinib + Luminespib”: O=C1NC(=O)[C@@H](c2cn3c4c(cccc24)CCC3)[C@@H]1c1c[nH]c2ccccc12 [Tivantinib] + CCNC(=O)c1noc(-c2cc(C(C)C)c(O)cc2O)c1-c1ccc(CN2CCOCC2)cc1 [Luminespib] (partner 0.01 µM)
An outline of the steps:
as §1

Compound in the assay “Crenolanib + OSI-027”: CC1(COc2ccc3c(c2)ncn3-c2ccc3cccc(N4CCC(N)CC4)c3n2)COC1 [Crenolanib] + COc1cccc2cc(-c3nc([C@H]4CC[C@H](C(=O)O)CC4)n4ncnc(N)c34)[nH]c12 [OSI-027] (partner 0.5 µM)
The method in brief: as §1

Compound in the assay “Tivantinib + AZD7762”: O=C1NC(=O)[C@@H](c2cn3c4c(cccc24)CCC3)[C@@H]1c1c[nH]c2ccccc12 [Tivantinib] + NC(=O)Nc1cc(-c2cccc(F)c2)sc1C(=O)N[C@H]1CCCNC1 [AZD7762] (partner 0.2 µM)
An outline of the steps: as §1

As to NCI-H2170, the relative viability in the assay with Tivantinib + Lapatinib (first compound 0.01 µM) came out at 0.157; with Tivantinib + Lapatinib (first compound 0.03162 µM), 0.252; in the assay with Tivantinib + Lapatinib (first compound 0.1 µM) it was 0.277; in the assay with Tivantinib + Luminespib (first compound 0.01 µM), 0.527; with Tivantinib + Luminespib (first compound 0.03162 µM) it was 0.594; in the assay with Tivantinib + Luminespib (first compound 0.1 µM), 0.672. Also, the relative viability stood at 0.82 in the assay with Crenolanib + OSI-027 (first compound 0.01 µM); 0.744 with Crenolanib + OSI-027 (first compound 0.03162 µM); 0.706 in the assay with Crenolanib + OSI-027 (first compound 0.1 µM); 0.828 in the assay with Crenolanib + OSI-027 (first compound 0.3162 µM); 0.669 in the assay with Crenolanib + OSI-027 (first compound 1 µM); 0.878 in the assay with Tivantinib + AZD7762 (first compound 0.01 µM). In addition, the relative viability with Tivantinib + AZD7762 (first compound 0.03162 µM) was 0.822; in the assay with Tivantinib + AZD7762 (first compound 0.1 µM) it was 0.794.

Regarding NCI-H2347, the relative viability with Tivantinib + Lapatinib (first compound 0.01 µM) was 0.891; in the assay with Tivantinib + Lapatinib (first compound 0.03162 µM) it was 0.923; with Tivantinib + Lapatinib (first compound 0.1 µM), 0.956; with Tivantinib + Lapatinib (first compound 0.3162 µM), 1; with Tivantinib + Luminespib (first compound 0.01 µM) it was 0.726; in the assay with Tivantinib + Luminespib (first compound 0.03162 µM), 0.35. The relative viability in the assay with Tivantinib + Luminespib (first compound 0.1 µM) came to 0.285; with Tivantinib + Luminespib (first compound 0.3162 µM) it was 0.316; in the assay with Crenolanib + OSI-027 (first compound 0.01 µM) it was 0.326; in the assay with Crenolanib + OSI-027 (first compound 0.3162 µM), 0.482; in the assay with Crenolanib + OSI-027 (first compound 1 µM) it was 0.427; in the assay with Tivantinib + AZD7762 (first compound 0.01 µM), 0.848. The relative viability amounted to 0.727 with Tivantinib + AZD7762 (first compound 0.03162 µM), 0.669 with Tivantinib + AZD7762 (first compound 0.1 µM) and 0.534 with Tivantinib + AZD7762 (first compound 0.3162 µM).

Consider NCI-H2405, for which the relative viability in the assay with Tivantinib + Lapatinib (first compound 0.01 µM) was 1.11; in the assay with Tivantinib + Lapatinib (first compound 0.03162 µM), 1.13; with Tivantinib + Lapatinib (first compound 0.1 µM) it was 1.06; in the assay with Tivantinib + Lapatinib (first compound 0.3162 µM), 1.08; with Tivantinib + Luminespib (first compound 0.01 µM) it was 0.77; in the assay with Tivantinib + Luminespib (first compound 0.03162 µM), 0.908. Besides, the relative viability with Tivantinib + Luminespib (first compound 0.1 µM) worked out at 0.651; with Tivantinib + Luminespib (first compound 0.3162 µM), 0.586; with Crenolanib + OSI-027 (first compound 0.01 µM), 0.672; with Crenolanib + OSI-027 (first compound 0.03162 µM), 0.64; with Crenolanib + OSI-027 (first compound 0.3162 µM) it was 0.671; with Crenolanib + OSI-027 (first compound 1 µM) it was 0.655. Also, the relative viability in the assay with Tivantinib + AZD7762 (first compound 0.01 µM) turned out to be 0.877; with Tivantinib + AZD7762 (first compound 0.03162 µM), 0.806; with Tivantinib + AZD7762 (first compound 0.1 µM) it was 0.753; in the assay with Tivantinib + AZD7762 (first compound 0.3162 µM), 0.828.

Take NCI-H3122: the relative viability was found to be 1.08 with Tivantinib + Lapatinib (first compound 0.01 µM); 0.94 in the assay with Tivantinib + Lapatinib (first compound 0.03162 µM); 0.973 in the assay with Tivantinib + Lapatinib (first compound 0.1 µM); 1.01 with Tivantinib + Lapatinib (first compound 0.3162 µM); 0.0944 with Tivantinib + Luminespib (first compound 0.01 µM); 0.103 in the assay with Tivantinib + Luminespib (first compound 0.03162 µM). Further, the relative viability is 0.0763 with Tivantinib + Luminespib (first compound 0.1 µM); 0.0784 in the assay with Tivantinib + Luminespib (first compound 0.3162 µM); 1.01 with Crenolanib + OSI-027 (first compound 0.01 µM); 0.974 in the assay with Crenolanib + OSI-027 (first compound 0.03162 µM); 0.962 with Crenolanib + OSI-027 (first compound 0.1 µM); 1.17 with Crenolanib + OSI-027 (first compound 0.3162 µM). Also, the relative viability with Crenolanib + OSI-027 (first compound 1 µM) was determined as 1.06; with Tivantinib + AZD7762 (first compound 0.01 µM), 1.05; in the assay with Tivantinib + AZD7762 (first compound 0.03162 µM) it was 1.07; with Tivantinib + AZD7762 (first compound 0.1 µM), 0.761; with Tivantinib + AZD7762 (first compound 0.3162 µM), 0.923.

Turning to PC-3 [JPC-3], the relative viability with Tivantinib + Lapatinib (first compound 0.01 µM) worked out at 0.433; in the assay with Tivantinib + Lapatinib (first compound 0.03162 µM), 0.546; in the assay with Tivantinib + Lapatinib (first compound 0.1 µM) it was 0.424; with Tivantinib + Lapatinib (first compound 0.3162 µM), 0.486; with Tivantinib + Luminespib (first compound 0.01 µM), 0.794; with Tivantinib + Luminespib (first compound 0.03162 µM) it was 0.777. The relative viability with Tivantinib + Luminespib (first compound 0.1 µM) was 0.678; with Tivantinib + Luminespib (first compound 0.3162 µM), 0.575; with Crenolanib + OSI-027 (first compound 0.01 µM), 0.804; in the assay with Crenolanib + OSI-027 (first compound 0.03162 µM), 0.725; with Crenolanib + OSI-027 (first compound 0.1 µM), 0.803; with Crenolanib + OSI-027 (first compound 0.3162 µM) it was 0.792. The relative viability with Crenolanib + OSI-027 (first compound 1 µM) is 0.719; with Tivantinib + AZD7762 (first compound 0.01 µM) it was 0.781; in the assay with Tivantinib + AZD7762 (first compound 0.03162 µM) it was 0.823; with Tivantinib + AZD7762 (first compound 0.1 µM), 0.884; with Tivantinib + AZD7762 (first compound 0.3162 µM), 0.601.

Take PC-14: the relative viability in the assay with Tivantinib + Lapatinib (first compound 0.01 µM) was 0.307; with Tivantinib + Lapatinib (first compound 0.03162 µM), 0.35; in the assay with Tivantinib + Lapatinib (first compound 0.1 µM) it was 0.3; with Tivantinib + Lapatinib (first compound 0.3162 µM), 0.325; with Tivantinib + Luminespib (first compound 0.03162 µM) it was 0.152; in the assay with Tivantinib + Luminespib (first compound 0.1 µM), 0.152. For the same cell line, the relative viability with Tivantinib + Luminespib (first compound 0.3162 µM) came out at 0.15; with Crenolanib + OSI-027 (first compound 0.01 µM), 0.883; in the assay with Crenolanib + OSI-027 (first compound 0.03162 µM) it was 0.776; in the assay with Crenolanib + OSI-027 (first compound 0.1 µM), 0.764; with Crenolanib + OSI-027 (first compound 0.3162 µM), 0.816; with Crenolanib + OSI-027 (first compound 1 µM), 0.617. Also, the relative viability in the assay with Tivantinib + AZD7762 (first compound 0.01 µM) worked out at 0.296; with Tivantinib + AZD7762 (first compound 0.03162 µM), 0.304; in the assay with Tivantinib + AZD7762 (first compound 0.1 µM), 0.4; with Tivantinib + AZD7762 (first compound 0.3162 µM), 0.226.

Consider RERF-LC-KJ, for which the relative viability in the assay with Tivantinib + Lapatinib (first compound 0.01 µM) worked out at 0.911; with Tivantinib + Lapatinib (first compound 0.03162 µM), 0.9; with Tivantinib + Lapatinib (first compound 0.1 µM) it was 0.872; in the assay with Tivantinib + Lapatinib (first compound 0.3162 µM), 0.759; in the assay with Tivantinib + Luminespib (first compound 0.01 µM), 1.25; in the assay with Tivantinib + Luminespib (first compound 0.03162 µM), 1.29. Also, the relative viability worked out at 1.24 with Tivantinib + Luminespib (first compound 0.1 µM); 1.27 with Tivantinib + Luminespib (first compound 0.3162 µM); 0.583 with Crenolanib + OSI-027 (first compound 0.01 µM); 0.582 with Crenolanib + OSI-027 (first compound 0.03162 µM); 0.574 in the assay with Crenolanib + OSI-027 (first compound 0.1 µM); 0.648 with Crenolanib + OSI-027 (first compound 0.3162 µM). Moreover, the relative viability came out at 0.448 with Crenolanib + OSI-027 (first compound 1 µM); 1.08 with Tivantinib + AZD7762 (first compound 0.01 µM); 0.921 with Tivantinib + AZD7762 (first compound 0.03162 µM); 0.952 in the assay with Tivantinib + AZD7762 (first compound 0.1 µM); 0.92 in the assay with Tivantinib + AZD7762 (first compound 0.3162 µM).
